Type in all cases: functional, organism-based
For assay [1], the system named is Mus musculus. As to the kind of experiment: Antinociceptive activity against formalin-induced pain in BALB/c mouse assessed paw licking, biting or shaking at 0.5 mg/kg, po administered 2 hrs before formalin challenge measured after 0 to 5 mins relative to control. The arrangement: dose 0.5 mg/kg.
For assay [2], the system named is Mus musculus. Nature of the assay: Antinociceptive activity against formalin-induced pain in BALB/c mouse assessed paw licking, biting or shaking at 0.5 mg/kg, po administered 2 hrs before formalin challenge measured after 25 to 35 mins relative to control. Further details: dose 0.5 mg/kg.
Assay [3] has as its system Mus musculus. Nature of the assay: Antinociceptive activity against formalin-induced pain in BALB/c mouse assessed paw licking, biting or shaking at 5 mg/kg, po administered 2 hrs before formalin challenge measured after 0 to 5 mins relative to control. Further details: dose 5 mg/kg.
For assay [4], the system named is Mus musculus. Nature of the assay: Antinociceptive activity against formalin-induced pain in BALB/c mouse assessed paw licking, biting or shaking at 5 mg/kg, po administered 2 hrs before formalin challenge measured after 25 to 35 mins relative to control. The arrangement: dose 5 mg/kg.
The test system of assay [5] is Mus musculus. Nature of the assay: Antinociceptive activity against formalin-induced pain in BALB/c mouse assessed paw licking, biting or shaking at 0.5 mg/kg, po equimolar dose of nortriptyline administered 2 hrs before formalin challenge measured after 0 to 5 mins relative to control. Further details: dose 0.5 mg/kg.
Assay [6] concerns Mus musculus. Nature of the assay: Antinociceptive activity against formalin-induced pain in BALB/c mouse assessed paw licking, biting or shaking at 0.5 mg/kg, po equimolar dose of nortriptyline administered 2 hrs before formalin challenge measured after 25 to 35 mins relative to control. The arrangement: dose 0.5 mg/kg.
In assay [7] the test system is Mus musculus. Nature of the assay: Antinociceptive activity against formalin-induced pain in BALB/c mouse assessed paw licking, biting or shaking at 5 mg/kg, po equimolar dose of nortriptyline administered 2 hrs before formalin challenge measured after 0 to 5 mins relative to control. The arrangement: dose 5 mg/kg.
For assay [8], the system named is Mus musculus. Nature of the assay: Antinociceptive activity against formalin-induced pain in BALB/c mouse assessed paw licking, biting or shaking at 5 mg/kg, po equimolar dose of nortriptyline administered 2 hrs before formalin challenge measured after 25 to 35 mins relative to control. The arrangement: dose 5 mg/kg.
For assay [9], the system named is Mus musculus. Nature of the assay: Antiinflammatory activity against formalin-induced BALB/c mouse skin assessed as reduction in TNFalpha level at to 0.5 mg/kg, po. The arrangement: dose 0.5 mg/kg.
The test system of assay [10] is Rattus norvegicus. As to the kind of experiment: Antiinflammatory activity against gamma carrageenan-induced paw edema in Wistar rat assessed as paw volume at 5 mg/kg, po equimolar dose of nortriptyline administered 2 hrs before carrageenan challenge relative to control. Further details: dose 5 mg/kg. For orientation: In the carrageenan paw model, swelling and tenderness develop within hours.

For assay [11], the system named is Mus musculus. Nature of the assay: Antinociceptive activity in BALB/c mouse assessed as […] at 0.25 mg/kg, po after 240 mins by hot plate method. Further details: dose 0.25 mg/kg.
Assay [12] has as its system Mus musculus. Nature of the assay: Antinociceptive activity in BALB/c mouse assessed as […] at 4.5 mg/kg, po after 240 mins by hot plate method. The arrangement: dose 4.5 mg/kg. On the technique in general: In hot-plate and tail-flick tests a longer latency is read as antinociception.
Assay [13] concerns Mus musculus. Nature of the assay: Antinociceptive activity in BALB/c mouse assessed as […] at 0.5 mg/kg, po equimolar dose of nortriptyline after 240 mins by hot plate method. The arrangement: dose 0.5 mg/kg.
Assay [14] relates to Mus musculus. Nature of the assay: Antinociceptive activity in BALB/c mouse assessed as […] at 0.25 mg/kg, po equimolar dose of nortriptyline after 240 mins by hot plate method. The arrangement: dose 0.25 mg/kg.
For assay [15], the system named is Mus musculus. Nature of the assay: Antinociceptive activity in BALB/c mouse assessed as […] at 4.5 mg/kg, po equimolar dose of nortriptyline after 240 mins by hot plate method. The arrangement: dose 4.5 mg/kg.
The subject of assay [16] is Mus musculus. As to the kind of experiment: Antinociceptive activity in BALB/c mouse assessed as […] at 10 mg/kg, po after 240 mins by hot plate method. The arrangement: dose 10 mg/kg.
For assay [17], the system named is Mus musculus. As to the kind of experiment: Antiinflammatory activity against formalin-induced BALB/c mouse skin assessed as reduction in TNFalpha level at 50 mg/kg, ip. Further details: dose 50 mg/kg.
The subject of assay [18] is Rattus norvegicus. As to the kind of experiment: Antiinflammatory activity against gamma carrageenan-induced paw edema in Wistar rat assessed as reduction in paw volume at 50 mg/kg, ip administered 2 hrs before carrageenan challenge measured after 4 hrs relative to control. The arrangement: dose 50 mg/kg.
Assay [19] concerns Rattus norvegicus. As to the kind of experiment: Antiinflammatory activity against gamma carrageenan-induced paw edema in Wistar rat assessed as reduction in paw volume at 50 mg/kg, ip administered 2 hrs before carrageenan challenge measured after 24 hrs relative to control. Further details: dose 50 mg/kg.
The test system of assay [20] is Rattus norvegicus. Nature of the assay: Antiinflammatory activity against gamma carrageenan-induced paw edema in Wistar rat assessed as paw volume at 50 mg/kg, ip administered 2 to 4 hrs before carrageenan challenge relative to control. The arrangement: dose 50 mg/kg.

Calls of active or inactive are those of the source. The calls are words filed in the database; no cut-off is given here.

Turning to `CNCCC=C1c2ccccc2CCc2ccccc21`, the outcome in assay [1], in assay [2], in assay [3], in assay [4], in assay [5] and in assay [6] was Active. In addition, the result in [7], in assay [8], in assay [9], in [10], in [11] and in assay [12] was Active. In addition, the outcome in assay [13], in [14] and in assay [15] was Active.

On to `CNCCC(Oc1ccc(C(F)(F)F)cc1)c1ccccc1` (stereo unspecified), for which, in assay [16], the result was Active.

Regarding `NCC1(CC(=O)O)CCCCC1`, the outcome in [9], in assay [17] and in assay [20] was Active. In addition, the result in assay [18] and in assay [19] was inactive.
